{"source": "paper PMC5054527", "about": "“Mechanism of high affinity inhibition of the human urate transporter URAT1” (Scientific Reports, 2016)", "assay_in_all_cases": "URAT1 uric acid transport activity assay", "assay_type_in_all_cases": "cell-based", "key": {"[1]": {"molecular_target": "T1, r-F351C rURAT1 point mutant (Rattus norvegicus, UniProt Q3ZAV1, F351C)", "T1 sequence (Q3ZAV1 1-553 F351C)": "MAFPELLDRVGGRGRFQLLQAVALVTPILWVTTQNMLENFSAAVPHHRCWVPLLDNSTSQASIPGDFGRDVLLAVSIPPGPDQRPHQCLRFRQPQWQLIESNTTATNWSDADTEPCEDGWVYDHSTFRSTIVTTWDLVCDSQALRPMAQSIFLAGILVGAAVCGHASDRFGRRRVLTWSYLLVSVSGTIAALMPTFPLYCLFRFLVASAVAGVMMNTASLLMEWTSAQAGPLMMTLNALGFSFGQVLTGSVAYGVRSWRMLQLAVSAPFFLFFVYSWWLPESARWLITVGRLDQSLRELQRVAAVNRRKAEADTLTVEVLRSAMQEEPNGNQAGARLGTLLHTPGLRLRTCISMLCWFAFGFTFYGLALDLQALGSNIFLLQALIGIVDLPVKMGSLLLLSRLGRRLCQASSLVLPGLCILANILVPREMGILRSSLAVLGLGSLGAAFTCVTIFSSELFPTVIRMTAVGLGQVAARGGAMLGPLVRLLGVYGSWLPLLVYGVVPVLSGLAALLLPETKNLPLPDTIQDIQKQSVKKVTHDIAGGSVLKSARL", "from_the_text": "(§1) hURAT1 (GenBank BC053348.1) and rURAT1 (NCBI NM_001034943.1) genes were purchased from Origene Technologies, Inc. and subcloned into pCMV6/neo using NotI, creating pCMV6/neo-hURAT1 and pCMV6/neo-rURAT1. Mutants were produced by polymerase chain reaction (PCR) or site-directed mutagenesis using the QuikChange Lightning Multi Site-Directed Mutagenesis Kit (Agilent Technologies). […] Detailed methods are provided in Supplementary Methods, and primers are listed in Supplementary Table 1. […] Residues in rURAT1 and hOAT1 that correspond to the residues in hURAT1 were identified from aligned protein sequences (Supplementary Fig. 1)[50].\n(§2) DNA (10 μg) was mixed with 30 μl of DreamFect Gold (Boca Scientific) in 2 ml OptiMem (Life Technologies). After 20 minutes, 18 ml of media containing 2 × 10^7 cells in suspension was added and mixed, and 200 μl per well were plated onto white clear-bottomed poly-D-lysine coated 96-well plates (BD Biosciences). The cells were assayed the following day.\n(§3) Compounds were serially diluted into assay buffer and added to the cells for 5 minutes prior to addition of radiolabelled uric acid substrate. URAT1-expressing cells were incubated with 100 μM ^14C-uric acid for 10 minutes. […] Each treatment was measured in triplicate.\n(§4) Unlabelled uric acid was prepared at a 20 mM stock just prior to use in a solution containing 20 mM dibasic potassium phosphate and 20 mM potassium hydroxide.\n(§5) Nonlinear regression analyses using GraphPad Prism software were used to calculate the potency of URAT1 inhibitors (IC50 values) from log (inhibitor) versus response - variable slope (four parameters) equations. Statistical significance was assessed using Student’s unpaired t-tests."}, "[2]": {"molecular_target": "T2, r-P27S rURAT1 point mutant (Rattus norvegicus, UniProt Q3ZAV1, P27S)", "T2 sequence (Q3ZAV1 1-553 P27S)": "T1 sequence (Q3ZAV1 1-553 F351C) with P27S, C351F", "from_the_text": "as §1, §2, §3, §4, §5"}, "[3]": {"molecular_target": "T3, r-N35S/Y365F/M481I rURAT1 triple point mutant (Rattus norvegicus, UniProt Q3ZAV1, M481I/N35S/Y365F)", "T3 construct": "hURAT1 and rURAT1 are 553 amino acid proteins with 12 transmembrane segments; expressed in transfected cells; host or cells: HEK-293T", "T3 sequence (Q3ZAV1 1-553 N35S/Y365F/M481I)": "T1 sequence (Q3ZAV1 1-553 F351C) with N35S, C351F, Y365F, M481I", "from_the_text": "as §1, §2, §3, §4, §5"}}, "note": "Residue numbers refer to the chain shown, from its start. Where two headings read alike, the source gives them in different places.", "data": [{"smiles": "O=C1C(CC[S+]([O-])c2ccccc2)C(=O)N(c2ccccc2)N1c1ccccc1", "note": "(stereo not shown) [sulfinpyrazone]", "values": [{"measurement": "IC50", "setting": "[1]; r-F351C, HEPES pH 7.3, 100 μM 14C-uric acid, read-out: IC50 (uric acid transport)", "value": "924 ± 276", "unit": "µM"}, {"measurement": "fold higher affinity of r-P27S compared to rURAT1", "setting": "[2]; from IC50 values", "value": 2.1, "unit": "fold"}, {"measurement": "IC50", "setting": "[2]; r-P27S, HEPES pH 7.3, 100 μM 14C-uric acid, read-out: IC50 (uric acid transport)", "value": "321 ± 77", "unit": "µM"}, {"measurement": "IC50", "setting": "[3]; r-N35S/Y365F/M481I, HEPES pH 7.3, 100 μM 14C-uric acid, read-out: IC50 (uric acid transport)", "value": "49 ± 2.2", "unit": "µM"}]}, {"smiles": "O=C(O)CSc1nnc(Br)n1-c1ccc(C2CC2)c2ccccc12", "note": "[lesinurad, 2-((5-bromo-4-(4-cyclopropylnaphthalen-1-yl)-4H-1,2,4-triazol-3-yl)thio)acetic acid]", "values": [{"measurement": "IC50", "setting": "[1]; r-F351C, MES pH 5.5, 100 μM 14C-uric acid, read-out: IC50 (uric acid transport)", "value": "82 ± 1.7", "unit": "µM"}, {"measurement": "IC50", "setting": "[2]; r-P27S, MES pH 5.5, 100 μM 14C-uric acid, read-out: IC50 (uric acid transport)", "value": "77 ± 3.2", "unit": "µM"}, {"measurement": "IC50", "setting": "[3]; r-N35S/Y365F/M481I, MES pH 5.5, 100 μM 14C-uric acid, read-out: IC50 (uric acid transport)", "value": "1.2 ± 0.14", "unit": "µM"}]}, {"smiles": "CCc1oc2ccccc2c1C(=O)c1cc(Br)c(O)c(Br)c1", "note": "[benzbromarone]", "values": [{"measurement": "IC50", "setting": "[1]", "value": "24 ± 3.3", "unit": "µM"}, {"measurement": "IC50", "setting": "[2]", "value": "16 ± 1.7", "unit": "µM"}, {"measurement": "IC50", "setting": "[3]", "value": "0.61 ± 0.04", "unit": "µM"}]}]}
